Source: US20070212412A1, “STABLE SOLID FORMULATION OF SERTINDOLE” (H. Lundbeck A/S, priority 2005, published 2007)

Legend:
[1] = Light stability study of film-coated sertindole tablets (HPLC degradation products); format: physicochemical; settings: film-coated tablets with white film-coating layer containing titanium dioxide, 2-4% film-layer relative to tablet core weight
Excerpt: 10 tablets of each sample were placed in a light cabinet (Heraeus Suntest CPS+) and were exposed to light providing an overall illumination of not less than 1.2 million lux hours, and an integrated near ultraviolet energy of not less than 200 watt hours/m^2. The tablets were placed directly in petri dishes in a single layer. […] The dark control was placed beside the sample and was protected against light, wrapped in aluminium foil. After light exposure the tablets (sample and dark control) were analysed for degradation products by HPLC analysis.
The samples of 10 tablets were disintegrated by the means of 0.1 M acetic acid. Next acetonitrile was added for extraction and subsequently the samples were made to volume with methanol/water (50/50). Final concentration: 0.4 mg/ml.
Samples from the light stability studies were analysed by HPLC.
Reversed phase chromatography was performed using a LiChrospher 100 RP-8, 5 μm, 250×4 mm ID with pre-column: LiChrospher 100 RP-8, 5 μm.
The mobile phase consisted of Tetrahydrofurane/acetonitrile/25 mM phosphate buffer pH 7.2 (7/43/50). […]
Quantification of the degradation products was done from area %, using the normalization factor 0.9 for Lu 26-115 (1-(2-(4-(5-Chloro-1-(4-fluorophenyl)-1H-indol-3-yl)-1-piperidinyl-1-oxide)ethyl)-2-imidazolidinone) and the normalization factor 1.0 for other impurities.

serotonin 5-HT2 = settings: cited from earlier work
dopamine D2 = dopamine D2 (Homo sapiens, UniProt P14416); settings: cited from earlier work
α1-adrenergic receptors = settings: cited from earlier work
[2] = clinical development programme; cited from earlier work

Chain of dopamine D2 (P14416 whole entry): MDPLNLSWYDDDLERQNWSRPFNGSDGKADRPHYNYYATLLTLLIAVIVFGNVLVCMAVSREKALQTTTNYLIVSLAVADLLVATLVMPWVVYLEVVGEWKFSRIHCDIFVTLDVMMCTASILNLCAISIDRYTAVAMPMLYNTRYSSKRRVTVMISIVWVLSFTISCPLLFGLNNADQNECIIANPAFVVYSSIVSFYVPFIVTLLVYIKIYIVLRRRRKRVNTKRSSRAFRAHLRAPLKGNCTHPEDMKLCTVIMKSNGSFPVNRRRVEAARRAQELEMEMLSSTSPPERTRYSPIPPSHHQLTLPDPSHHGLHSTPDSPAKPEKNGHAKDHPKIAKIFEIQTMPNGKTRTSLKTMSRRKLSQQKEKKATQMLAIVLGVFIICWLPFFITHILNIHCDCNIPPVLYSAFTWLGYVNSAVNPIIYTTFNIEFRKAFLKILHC

O=C1NCCN1CCN1CCC(c2cn(-c3ccc(F)cc3)c3ccc(Cl)cc23)CC1 [Sertindole]
light sensitivity [1]: undergoes a light-induced degradation process
affinity for serotonin 5-HT2 (serotonin 5-HT2): high affinity
affinity for dopamine D2 (dopamine D2): high affinity
affinity for α1-adrenergic receptors (α1-adrenergic receptors): high affinity
effect on symptoms of schizophrenia [2]: effect against both positive and negative symptoms of schizophrenia
incidence of extrapyramidal side effects [2]: placebo-level incidence
tolerability [2]: well-tolerated
